Test results as given in patent US9326539B2, “Compositions comprising dietary fat complexers and methods for their use” (Soho Flordis International Pty. Ltd., priority 2002, dated 2016).

Assay: in vitro study of vegetable oil, water and cyclodextrin: band of wax-like complex
Format: physicochemical
Details: vegetable oil 4 g, water 6 g, varying amounts of cyclodextrin (100-2,000 mg), centrifuged
Protocol: FIG. 9A-9C depicts the results of an in vitro study of vegetable oil (4 g), water (6 g) (with added food coloring for contrast) and varying amounts of (A) α-cyclodextrin (100-2,000 mg, right to left), (B) β-cyclodextrin or (C) γ-cyclodextrin. A band of “wax-like” material layered between the oil and aqueous phases is apparent in the tubes. […] Note the increasing size (right to left) of a white layer of un-reacted α-cyclodextrin in the bottom of the tubes. This material is displaced from solution by either the oil or the α-cyclodextrin-oil complex. These tubes were centrifuged in order to improve the definition of the layers. The “wax-like” complex is of such a consistency that all of the tubes except for the furthest two to the right can be inverted without leakage of the aqueous phase around the complex.
FIGS. 9A-9C depict the results of an in vitro study of vegetable oil (4 g), water (6 g) (with added food coloring for contrast) and varying amounts of (A) α-cyclodextrin (100-2,000 mg, right to left), (B) β-cyclodextrin or (C) γ-cyclodextrin. A band of “wax-like” material layered between the oil and aqueous phases is apparent in the tubes. […] Note the increasing size (right to left) of a white layer of un-reacted α-cyclodextrin in the bottom of the tubes. This material is displaced from solution by either the oil or the α-cyclodextrin-oil complex. These tubes were centrifuged in order to improve the definition of the layers. The “wax-like” complex is of such a consistency that all of the tubes in 9A except for the furthest two to the right can be inverted without leakage of the aqueous phase around the complex.
Thus one would not have expected α-cyclodextrin to complex triglyceride molecules because the molecules would not fit within the pore of the α α-cyclodextrin. […] The white substance in the bottom of the tubes is precipitated cyclodextrin.

Row | band of wax-like material (complexed fat) between oil and aqueous phases | Compound
1 | significantly less | OC[C@H]1O[C@@H]2O[C@H]3[C@H](O)[C@@H](O)[C@@H](O[C@H]4[C@H](O)[C@@H](O)[C@@H](O[C@H]5[C@H](O)[C@@H](O)[C@@H](O[C@H]6[C@H](O)[C@@H](O)[C@@H](O[C@H]7[C@H](O)[C@@H](O)[C@@H](O[C@H]8[C@H](O)[C@@H](O)[C@@H](O[C@H]1[C@H](O)[C@H]2O)O[C@@H]8CO)O[C@@H]7CO)O[C@@H]6CO)O[C@@H]5CO)O[C@@H]4CO)O[C@@H]3CO [β-cyclodextrin]
2 | bearly noticeable | OC[C@H]1O[C@@H]2O[C@H]3[C@H](O)[C@@H](O)[C@@H](O[C@H]4[C@H](O)[C@@H](O)[C@@H](O[C@H]5[C@H](O)[C@@H](O)[C@@H](O[C@H]6[C@H](O)[C@@H](O)[C@@H](O[C@H]7[C@H](O)[C@@H](O)[C@@H](O[C@H]8[C@H](O)[C@@H](O)[C@@H](O[C@H]9[C@H](O)[C@@H](O)[C@@H](O[C@H]1[C@H](O)[C@H]2O)O[C@@H]9CO)O[C@@H]8CO)O[C@@H]7CO)O[C@@H]6CO)O[C@@H]5CO)O[C@@H]4CO)O[C@@H]3CO [γ-cyclodextrin]
